These results are taken from patent US11993576B2, “N-benzyl-N-arylsulfonamide derivative and preparation and use thereof” (Hangzhou Yirui Pharmaceutical Technology Co., Ltd, priority 2019, dated 2024).

pIC50: −log10 of the molar value. “Also recorded” adds a separate entry of the source.

In one test the target is human Kv1.5 (Homo sapiens, UniProt P22460). The experiment in a line: Conventional patch clamp assay of inhibitory activity against Kv1.5. It counts as cell-based. The settings on record: conventional patch-clamp method; CHO-K1 cells stably expressing human Kv1.5. As for the experimental part:
III. Conventional Patch Clamp Assay of Inhibitory Activity Against Kv1.5
The principle and method for the conventional patch clamp method can be found in Grissmer et al. [Grissmer et al. Molecular Pharmacology 1994, 45:1227-1234].
Inhibitory activity of a compounds against Kv1.5 was assessed using a CHO-K1 recombinant cell line stably expressing human Kv1.5 (Charles River, Calif.). The cells were cultured in an F-12K culture medium containing 5% calf serum (Invitrogen, Carlsbad.ca) in an incubator at 37° C. and under air humidity with 6% CO2.
(§1) During the experiment, adherent cells were placed in a recording chamber under an inverted microscope. All the experiments were performed at room temperature. Each of the cells used itself as the control.
(§2) The test compounds were formulated to their final concentrations on the day of assay, and then dissolved in an extracellular fluid. The extracellular fluid (mM) was: NaCl, 137; KCl, 4; CaCl2, 1.8; MgCl2, 1; HEPES, 10; glucose 10; pH 7.4 (NaOH titration). All the solutions of the test compounds and the control compounds contained 0.3% of DMSO.
Each of the compounds was perfused by a gravity-driven perfusion system. At least two cells were tested for each of the concentrations of a compound. After the current was stable, the blocking effect of the compounds was calculated by comparing the change in the current before and after administration of the compounds.
1000 μM 4-AP was used as a positive control.
(§3) The cells were transferred to a perfusion chamber, and were perfused with the extracellular fluid. Intracellular fluid (mM): K-aspartate, 130; MgCl2, 5; EGTA 5; HEPES, 10; pH 7.2 (KOH titration). The intracellular fluid was stored in a small amount in a refrigerator at −80° C. in batches, and was thawed on the day of the experiment. The electrodes were drawn by PC-10 (Narishige, Japan). A whole-cell patch-clamp recording was performed, with the noise being filtered by one-fifth of the sampling frequency.
The cells were clamped at −80 mV and then depolarized to 20 mV with square waves lasting for 2 seconds to obtain a Kv1.5 current. This process was repeated every 20 seconds. The maximum current elicited by the square waves was detected. After the maximum current became stable, the test compounds were perfused. After the reaction was stable, the blocking strength was calculated.
Data was collected and analyzed using pCLAMP 10 (Molecular Devices, Union City, CA). A stable current meant a current which varies within a limited range over time. The value of the stable current was used to calculate the effect of a compound at this […].
On the technique in general: Patch clamp records ionic current or voltage across a cell membrane.

Test [1] addresses T1, human Kv1.3 (Homo sapiens, UniProt P22001). The experiment in a line: Conventional patch clamp assay of inhibitory activity against Kv1.3. Particulars: conventional patch-clamp method; CHO-K1 cells stably expressing human Kv1.3. Format: cell-based.
Text: II. Conventional Patch Clamp Assay of Inhibitory Activity Against Kv1.3
In order to compare the influence of different assay methods on the inhibitory activity of a compound, the conventional patch clamp method was used to assay the inhibitory activities of compounds 21, 37, 44, 61 against Kv1.3. The principle and method for the conventional patch clamp method can be found in Grissmer et al. [Grissmer et al. Molecular Pharmacology 1994, 45:1227-1234].
Inhibitory activity of the compounds against Kv1.3 was assessed using a CHO-K1 recombinant cell line stably expressing human Kv1.3 (Charles River, California). The cells were cultured in an F-12K culture medium containing 5% calf serum (Invitrogen, Carlsbad.ca) in an incubator at 37° C. and under air humidity with 6% CO2.
as §1, §2
Each of the compounds was perfused by a gravity-driven perfusion system. At least two cells were tested for each of the concentrations of a compound. After the current was stable, the blocking effect of the compounds was calculated by comparing the change in the current before and after administration of the compounds. 1000 μM 4-AP was used as a positive control.
as §3
The cells were clamped at −80 mV and then depolarized to 0 mV with square waves lasting for 2 seconds to obtain a Kv1.3 current. This process was repeated every 20 seconds. The maximum current elicited by the square waves was detected. After the maximum current became stable, the test compounds were perfused. After the reaction was stable, the blocking strength was calculated.
Data was collected and analyzed using pCLAMP 10 (Molecular Devices, Union City, CA). A stable current meant a current which varies within a limited range over time. […]

The target of test [2] is T1, human Kv1.3. The experiment in a line: IonWorks automated patch clamp assay of inhibitory activity against Kv1.3. Format: cell-based. Particulars: automated patch clamp method; CHO-K1 cells stably expressing human Kv1.3. As for the experimental part:
I. IonWorks Automated Patch Clamp Assay of Inhibitory Activity Against Kv1.3
The principle and method for Kv1.3 IonWorks assay can be found in Schroeder et al. [Schroeder et al. J Biomol Screen 2003, 8(1):50-64]
Inhibitory activity of the compounds against Kv1.3 was assessed using a CHO-K1 recombinant cell line stably expressing human Kv1.3 (Charles River, Calif.). The cells were cultured in an F-12K culture medium containing 5% calf serum (Invitrogen, Carlsbad. Calif.) in an incubator at 37° C. and under air humidity with 6% CO2. Prior to be fed in the IonWorks system, the adherent cells were treated with Versene at 37° C. for 6-7 min. After gently beating the culture flask, the cells were re-suspended in a PBS phosphate buffer, and then were centrifuged at 50×g for 4 min. After a short grinding, the cells were eventually re-suspended in an external recording solution at a density of approximately 1×10^6/mL.
The compounds were dissolved in DMSO to formulate a final assay concentration of 300× on the master plate. The final gradient assay concentrations were […], 0.096, 0.048, 0.24, 1.2, 6 and 30 μM. All 300× stock solutions of each compound in DMSO were transferred to a 384-well plate with 2 μl per well. The plates were sealed and stored at −80° C. until the day of assay.
On the day of assay, the plates were each thawed at room temperature. After centrifugation, 198 μl of the external recording solution (with the components of: 130 mM Na-Gluconate, 20 mM NaCl, 4 mM KCl, 1 mM MgCl2, 1.8 mM CaCl2, 5 mM Glucose and 10 mM HEPES, pH7.3) was added and mixed thoroughly. This step provided a 1:100 dilution for the compounds. After addition of cells to IonWorks, a further 1:3 dilution was carried out, resulting in a total dilution of 1:300. At least 8 wells were reserved as blank control on each of the plates, i.e., containing only 0.3% DMSO. In addition, at least 8 wells were reserved as positive control to detect the specificity to cell signals. Fluoxetine, a compound as the positive control, was assayed at its maximum blocking concentration (100 μm) and secondary maximum blocking concentration (10 μm). In addition, an internal recording solution used in the assay (with the components of: 100 mM K-gluconate, 40 mM KCl, 1 mM MgCl2, 1 mM EGTA and 10 mM HEPES, pH7.3) contained Amphotericin B at a final concentration of 200 μg/mL to gain current channels inside the cells. The osmotic pressure of the solution was adjusted with sucrose.
Experimental procedures were carried out following the protocols as set by IonWorks Quattro system (Molecular Devices, San Jose, CA). The current of human Kv1.3 was elicited to 0 millivolt (mV) for four times by a pulse lasting 1 second. A potential of −80 mV was maintained between pulses, for 5 seconds. First, a early voltage application program was started in the IonWorks Quattro system, and then the compounds were added and incubated for 600 seconds. Next, a late voltage application program was started until completion of all assays.
The maximum peak outward currents both before and after addition of the compounds as well as the average tail current elicited when the fourth pulse rose to 0 mV were measured. The inhibitory activity of the compounds against Kv1.3 can be calculated by dividing the measured current amplitude after addition of the compounds by the measured current amplitude before addition of the compounds.
All data was calibrated by a data filtration program of the IonWorks Quattro system. The filtration standard was that: seal quality >30 MΩ, decrease of seal resistance <50% and current amplitude >200 pA.

Test [3] concerns rat model of psoriasis induced by imiquimod. Nature of the test: Rat model of psoriasis induced by imiquimod. Format: in vivo. Particulars: Wista female rats; for pathological analysis of skin (HE×100): skin lesions of the back collected on day 11, FIG. 3. As for the experimental part: V. Effects of Compound 24 on a Rat Model of Psoriasis Induced by Imiquimod
SPF Wista female rats with body weight of around 200 g were used.
Dexamethasone (DXMS) sodium phosphate injection, 5 mg/ml/injection (Shiyao Yinhu Pharmaceutical Co., Ltd.); 5% imiquimod cream, 0.25 g/pack (Sichuan MED-SHINE Pharmaceutical Co., Ltd.); 3×10^6 U recombinant human interferon α-2a injection, 1.0 ml/vial (Shenyang Sunshine Pharmaceutical Co., Ltd.); vehicle and negative control: acetone/DMSO 9:1 (Vehicle).
3.1 The animals were randomly divided into 6 groups based on body weight with 10 animals per group: normal control group, model control group, positive control group (dexamethasone sodium phosphate injection 5 mg/mL), 1% Compound 24 group, 0.3% Compound 24 group and 0.1% Compound 24 group.
3.2 Modelling and administration: after adaptive feeding for several days, for each of the rats, hair in central area of the back (2 cm×2 cm) was shaved, and then the surface short hair was shaved with mild depilatory cream, washed and dried. If hair on the back grew out again during the experiment, the hair was removed with a razor. Every morning, for the rats in model control group and administration groups, 5% imiquimod cream was evenly applied on the back at 20 mg/cm^2 (0.25 g/pack, for 3 rats), and after 10 min, recombinant human interferon α-2a injection was injected intraperitoneally at 10,000 U/500 g; for the normal control group, the rats were not treated, once a day, for 10 days. In the afternoon, for the rats in the administration groups, drugs were applied at a corresponding dose (drugs with corresponding concentrations were applied on the back at 100 μL/rat, twice, 50 μL each time) once a day for 10 days.
3.3 Psoriasis Area and Severity Index (PASI) score: according to PASI scoring standard, a score of 0-4 was given for erythema, scale and epidermal thickening of infiltration in the lesional skin of rats. The scoring criteria was as follows: 0, none; 1, mild; 2, moderate; 3, severe; 4, extremely severe. For the rats in each of the groups, the scores were averaged and changes in skin lesions of the rats were observed.
3.4 HE staining: after completion of modeling (on day 11), the tissues with skin lesions on the back of rats were collected, fixed with 4% neutral formaldehyde, embedded in paraffin, and sectioned. After HE staining, changes in skin histomorphology were observed under a microscope, and Baker scoring was performed. […]
3.5 Statistical Methods: all data was expressed as mean±standard deviation (x±s). […]

T1 sequence (P22001 whole entry): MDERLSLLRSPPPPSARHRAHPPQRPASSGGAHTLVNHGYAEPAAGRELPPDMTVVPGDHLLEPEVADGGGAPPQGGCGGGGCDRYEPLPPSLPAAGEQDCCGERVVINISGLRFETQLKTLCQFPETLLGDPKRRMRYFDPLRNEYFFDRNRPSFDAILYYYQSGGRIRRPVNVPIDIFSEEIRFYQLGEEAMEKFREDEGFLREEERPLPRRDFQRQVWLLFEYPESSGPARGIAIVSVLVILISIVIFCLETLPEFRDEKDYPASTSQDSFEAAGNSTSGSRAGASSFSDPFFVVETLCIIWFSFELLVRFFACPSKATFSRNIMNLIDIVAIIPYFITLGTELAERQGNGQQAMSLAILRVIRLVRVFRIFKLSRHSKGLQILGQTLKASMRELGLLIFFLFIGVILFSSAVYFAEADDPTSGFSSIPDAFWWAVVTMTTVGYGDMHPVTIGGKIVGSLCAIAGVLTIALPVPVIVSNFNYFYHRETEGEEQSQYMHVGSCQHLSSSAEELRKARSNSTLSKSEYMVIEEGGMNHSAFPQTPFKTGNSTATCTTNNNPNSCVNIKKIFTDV
human Kv1.5, sequence (P22460 whole entry): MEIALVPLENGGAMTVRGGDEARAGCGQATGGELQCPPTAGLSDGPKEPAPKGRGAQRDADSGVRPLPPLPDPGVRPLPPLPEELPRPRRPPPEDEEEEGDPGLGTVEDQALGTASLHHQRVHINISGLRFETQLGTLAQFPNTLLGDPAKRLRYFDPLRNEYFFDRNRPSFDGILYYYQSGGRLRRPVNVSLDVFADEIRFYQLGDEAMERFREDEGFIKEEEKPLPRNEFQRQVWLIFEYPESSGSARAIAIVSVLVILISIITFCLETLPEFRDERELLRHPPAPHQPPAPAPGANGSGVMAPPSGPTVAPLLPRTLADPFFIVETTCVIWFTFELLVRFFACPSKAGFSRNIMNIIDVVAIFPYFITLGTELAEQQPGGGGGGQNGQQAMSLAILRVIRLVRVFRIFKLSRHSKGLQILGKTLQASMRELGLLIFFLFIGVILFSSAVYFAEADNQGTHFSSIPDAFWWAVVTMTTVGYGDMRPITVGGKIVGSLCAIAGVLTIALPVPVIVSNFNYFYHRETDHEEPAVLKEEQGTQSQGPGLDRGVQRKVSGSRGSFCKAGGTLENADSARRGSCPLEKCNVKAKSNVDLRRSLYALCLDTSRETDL

As for `CCCS(=O)(=O)N(Cc1ccc(Cl)cc1)c1ccc(N2CCN(S(=O)(=O)N(C)C)CC2)c(C#N)c1` [Compound 44, 4-(4-(N-(4-chlorobenzyl)propanesulfonamido)-2-cyanophenyl)-N,N-dimethylpiperazin-1-sulfonamide], the pIC50 – broadly, −log10 of the IC50, conventionally taken in molar units – at human Kv1.5 was 5.10; at human Kv1.3 [1], 6.95; against human Kv1.3 [2], 7.02.
For `CCCS(=O)(=O)N(Cc1ccc(Cl)cc1)c1ccc(N2CCN(C(=O)OCC)CC2)c(C#N)c1` [Compound 24], in test [3] (1%, 0.3%, 0.1% applied on the back once a day for 10 days, FIG. 2A), the PASI score entry is recorded as “had a significant effect on psoriasis in a dose-dependent manner; also recorded: exhibited a significant efficacy on psoriasis in a dose-dependent manner”. Moreover, the Baker score result in test [3] (1%, 0.3%, 0.1% applied on the back once a day for 10 days, HE staining day 11, FIG. 2B) is reported as “had a significant effect on psoriasis in a dose-dependent manner; also recorded: exhibited a significant efficacy on psoriasis in a dose-dependent manner”. Moreover, the “pathological analysis of skin (HE×100)” value in test [3] was “had a significant effect on psoriasis in a dose-dependent manner”; in test [3] (listed as compound 24) it was “the skin structure was intact, the granular layer was visible, the skin was partly lengthened and clubbed, no acanthosis was observed, and a small amount infiltration of inflammatory cells was observed in the dermis”. This compound gave a pIC50 on human Kv1.3 [2] of 7.07.
For the compound `CCCS(=O)(=O)N(Cc1ccc(F)cc1)c1ccc(N2CCN(C(=O)N(C)C)CC2)c(C#N)c1` [Compound 21, 4-(2-cyano-4-(N-(4-fluorobenzyl)propyl)phenyl)-N,N-dimethylpiperazin-1-formamide], the pIC50 on human Kv1.5 was 5.55; against human Kv1.3 [1] it was 6.85; at human Kv1.3 [2] it was 7.01.
Turning to `CCCS(=O)(=O)N(Cc1ccccc1)c1ccc(N2CCN(C(=O)OCC)CC2=O)c(C#N)c1` [Compound 61, ethyl 4-(4-(N-benzylpropanesulfonamido)2-cyanophenyl)-3-oxopiperazin-1-formate], the figures for the pIC50 on human Kv1.5, against human Kv1.3 [1] and against human Kv1.3 [2] were 5.68, 6.89 and 7.04, respectively.
In turn, `CN(C)CCOC1CCN(c2ccc(N(Cc3ccccc3)S(=O)(=O)c3ccccc3)cc2C#N)CC1` [Compound 18, N-benzyl-N-(3-cyano-4-(4-(2-(dimethylamino)ethoxy)piperidin-1-yl)phenyl)benzenesulfonamide] had a pIC50 at human Kv1.3 [2] of 7.00.
With `CCOC(=O)NC1CCN(c2ccc(N(Cc3ccccc3)S(=O)(=O)c3ccccc3)cc2C#N)CC1` [Compound 14, ethyl 1-(4-(N-benzylbenzenesulfonamido)-2-cyanophenyl)piperidin-4-yl carbamate], at human Kv1.3 [2], the pIC50 is 6.89.
